# In patent US11382924B2, “Compounds and pharmaceutical uses thereof” (priority 2020, dated 2022):
# “And” between values parts separate entries of the source, which are not always exact repeats. Equal entries are not always repeated. Where two headings read alike, the source gives them in different places.
# Columns and labels:
# [1] = molecular target: human D-amino acid oxidase (Homo sapiens, UniProt P14920); experiment: Inhibition of human D-amino acid oxidase; format: biochemical; conditions: read-out: IC50 for inhibiting human D-amino acid oxidase
# Sequence of human D-amino acid oxidase (P14920 whole entry): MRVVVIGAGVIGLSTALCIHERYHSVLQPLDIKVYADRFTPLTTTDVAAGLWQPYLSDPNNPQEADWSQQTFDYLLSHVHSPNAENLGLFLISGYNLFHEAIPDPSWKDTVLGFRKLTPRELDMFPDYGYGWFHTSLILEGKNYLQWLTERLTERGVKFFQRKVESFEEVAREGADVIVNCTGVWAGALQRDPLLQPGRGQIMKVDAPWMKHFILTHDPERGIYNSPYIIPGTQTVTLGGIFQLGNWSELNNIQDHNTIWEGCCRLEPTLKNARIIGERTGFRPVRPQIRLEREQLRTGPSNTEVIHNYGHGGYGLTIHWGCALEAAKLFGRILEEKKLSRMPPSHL
# [2] = molecular target: 2019-nCoV 3CLPro (Severe acute respiratory syndrome coronavirus 2, UniProt P0DTD1); experiment: 2019-nCoV 3CLPro fluorogenic protease activity assay at 3 μM (35 nM protease, pH 7.0); format: biochemical; conditions: for remaining activity at 3 µM / Residual Protease Activity (%) 3 μM: 3 μM sample; for remaining activity at 3 µM: read-out: Residual Protease Activity (%) 3 μM
# [3] = molecular target: T1, SARS-CoV-2 3CLPro (Severe acute respiratory syndrome coronavirus 2, UniProt P0DTD1); experiment: biochemical
# [4] = molecular target: T2, SARS-CoV-2 viral 3CL protease (Severe acute respiratory syndrome coronavirus 2, UniProt P0DTD1); experiment: biochemical; conditions: read-out: Residual Protease Activity (%) 1 μM
# [5] = tested on: SARS-CoV-2; conditions: Choy et al., 2020; qRT-PCR, supernatant; MOI = 0.02; cited from earlier work
# [6] = 2020, cited from earlier work
# [7] = tested on: SARS-CoV-2; experiment: SARS-CoV-2 virucidal assay in Vero E6 cells (qPCR of RdRP gene); format: cell-based; conditions: MOI 0.01, 24 h
# [8] = molecular target: T2, SARS-CoV-2 viral 3CL protease; experiment: 3CL protease activity assay, concentration series of SNB01 (IC50); format: biochemical
# [9] = molecular target: T1, SARS-CoV-2 3CLPro; experiment: Native-PAGE mobility shift binding with 3CLPro; conditions: 62.5-1000 μM sample mixed with 40 μM 3CLPro, 4° C., 3 hours
# [10] = IC50, Table 34, final DMSO concentration 0.05%
# [11] = Table 34, final DMSO concentration 0.05%, read-out: IC50 (converted)
# [12] = 50% inhibition concentration (IC50) against SARS-CoV-2 3CLPro, samples of Table 34, 50 nM protease, 6 μM substrate
# [13] = Table 34, final DMSO concentration 0.40%, read-out: IC50 (converted)
compound,measurement,setting,value
O=C(O)c1cc(O)c(O)c(OC(=O)c2cc(O)c(O)c(OC(=O)c3cc(O)c(O)c(O)c3)c2)c1 [Compound 14],IC50,[1],299 nM
O=C(O)c1cc(O)c(O)c(OC(=O)c2cc(O)c(O)c(OC(=O)c3cc(O)c(O)c(OC(=O)c4cc(O)c(O)c(OC(=O)c5cc(O)c(O)c(O)c5)c4)c3)c2)c1 [Compound 18],remaining activity at 3 µM,[2],56%
same,inhibition at 3 µM,"[2]; 3 μM, read-out: inhibition activity against 2019-nCoV 3CLpro",44%
same,IC50,[1],121 nM
O=C(Oc1cc(OC(=O)c2cc(O)c(O)c(OC(=O)c3cc(O)c(O)c(OC(=O)c4cc(O)c(O)c(O)c4)c3)c2)cc(OC(=O)c2cc(O)c(O)c(OC(=O)c3cc(O)c(O)c(OC(=O)c4cc(O)c(O)c(O)c4)c3)c2)c1)c1cc(O)c(O)c(OC(=O)c2cc(O)c(O)c(OC(=O)c3cc(O)c(O)c(O)c3)c2)c1 [Phloroglucinol 9G],IC50,[3]; [10],1450 nM
same,IC50,[3]; [11],1450 nM
O=C(OC[C@H]1O[C@H](OC(=O)c2cc(O)c(O)c(O)c2)[C@H](OC(=O)c2cc(O)c(O)c(O)c2)[C@@H](OC(=O)c2cc(O)c(O)c(O)c2)[C@@H]1OC(=O)c1cc(O)c(O)c(O)c1)c1cc(O)c(O)c(O)c1 [Sample 1],remaining activity at 3 µM,[2],52%
O=C(OC[C@H]1O[C@H](OC(=O)c2cc(O)c(O)c(OC(=O)c3cc(O)c(O)c(O)c3)c2)[C@H](OC(=O)c2cc(O)c(O)c(OC(=O)c3cc(O)c(O)c(O)c3)c2)[C@@H](OC(=O)c2cc(O)c(O)c(OC(=O)c3cc(O)c(O)c(O)c3)c2)[C@@H]1OC(=O)c1cc(O)c(O)c(OC(=O)c2cc(O)c(O)c(O)c2)c1)c1cc(O)c(O)c(OC(=O)c2cc(O)c(O)c(O)c2)c1 [Sample 3],Residual Protease Activity (%) 3 μM,[2],−2%
same,remaining activity at 1 µM,[4]; 1 μM sample,39%
same,IC50,[3]; [12],< 882 nM
same,IC50,[3]; [10],666 nM and 665 nM
Cc1cccc(C)c1OCC(=O)N[C@@H](Cc1ccccc1)[C@@H](O)C[C@H](Cc1ccccc1)NC(=O)[C@H](C(C)C)N1CCCNC1=O [Lopinavir],EC50,[5],26100 nM
same,Therapeutic Index (CC50/EC50),[5],1.906
O=C(Oc1cc(OC(=O)c2cc(O)c(O)c(OC(=O)c3cc(O)c(O)c(OC(=O)c4cc(O)c(O)c(OC(=O)c5cc(O)c(O)c(OC(=O)c6cc(O)c(O)c(O)c6)c5)c4)c3)c2)cc(OC(=O)c2cc(O)c(O)c(OC(=O)c3cc(O)c(O)c(OC(=O)c4cc(O)c(O)c(OC(=O)c5cc(O)c(O)c(OC(=O)c6cc(O)c(O)c(O)c6)c5)c4)c3)c2)c1)c1cc(O)c(O)c(OC(=O)c2cc(O)c(O)c(OC(=O)c3cc(O)c(O)c(OC(=O)c4cc(O)c(O)c(OC(=O)c5cc(O)c(O)c(O)c5)c4)c3)c2)c1 [Phloroglucinol 15G],IC50,[3]; [13],934 nM
CCC(CC)COC(=O)[C@H](C)N[P@](=O)(OC[C@H]1O[C@@](C#N)(c2ccc3c(N)ncnn23)[C@H](O)[C@@H]1O)Oc1ccccc1 [Remdesivir],CC50,[6]; Choy et al.,> 100000 nM
same,CC50,[6]; Jeon et al.,> 25000 nM
same,CC50,[6]; Pruijssers et al.,> 10000 nM
same,CC50,[6]; Runfeng et al.,111000 nM
same,CC50,[6]; Wang et al.,> 100000 nM
same,EC99 against SARS-CoV-2 infection,"[7]; Vero E6, cell layer",15 µM and 15.000 µM
same,EC99 against SARS-CoV-2 infection,"[7]; Vero E6, supernatant",15 µM and 15.000 µM
O=C(OC[C@H]1O[C@@H](OC(=O)c2cc(O)c(O)c(OC(=O)c3cc(O)c(O)c(O)c3)c2)[C@H](OC(=O)c2cc(O)c(O)c(OC(=O)c3cc(O)c(O)c(O)c3)c2)[C@@H](OC(=O)c2cc(O)c(O)c(OC(=O)c3cc(O)c(O)c(O)c3)c2)[C@@H]1OC(=O)c1cc(O)c(O)c(OC(=O)c2cc(O)c(O)c(O)c2)c1)c1cc(O)c(O)c(OC(=O)c2cc(O)c(O)c(O)c2)c1 [SNB01],IC50,[8],~474 nM
"O=C(OC[C@H]1O[C@@H](OC(=O)c2cc(O)c(O)c(OC(=O)c3cc(O)c(O)c(O)c3)c2)[C@H](OC(=O)c2cc(O)c(O)c(OC(=O)c3cc(O)c(O)c(O)c3)c2)[C@@H](OC(=O)c2cc(O)c(O)c(OC(=O)c3cc(O)c(O)c(O)c3)c2)[C@@H]1OC(=O)c1cc(O)c(O)c(OC(=O)c2cc(O)c(O)c(O)c2)c1)c1cc(O)c(O)c(OC(=O)c2cc(O)c(O)c(O)c2)c1 [Sample 4, (2S,3R,4S,5R,6R)-3,4,5-tris(3,4-dihydroxy-5-(3,4,5-trihydroxybenzoyloxy)benzoyloxy)-6-((3,4-dihydroxy-5-(3,4,5-trihydroxybenzoyloxy)benzoyloxy)methyl)oxan-2-yl 3,4-dihydroxy-5-(3,4,5-trihydroxybenzoyloxy)benzoate]",Residual Protease Activity (%) 3 μM,[2],−9%
same,binding to 3CLPro by native-PAGE mobility shift,[9],significant binding
same,remaining activity at 1 µM,[4]; 1 μM sample,43%
same,IC50,[3]; [12],< 882 nM
same,IC50,[3]; [10],806 nM
O=C(Oc1ccccc1)c1cc(O)c(O)c(OC(=O)c2cc(O)c(O)c(OC(=O)c3cc(O)c(O)c(O)c3)c2)c1 [phenol 3G],IC50,"[3]; IC50, Table 34, final DMSO concentration 0.40%",6440 nM
same,IC50,[3]; [13],6440 nM
"O=C(OC[C@H]1O[C@@H](OC(=O)c2cc(O)c(O)c(O)c2)[C@H](OC(=O)c2cc(O)c(O)c(O)c2)[C@@H](OC(=O)c2cc(O)c(O)c(O)c2)[C@@H]1OC(=O)c1cc(O)c(O)c(O)c1)c1cc(O)c(O)c(O)c1 [Sample 2, (2S,3R,4S,5R,6R)-3,4,5-tris(3,4,5-trihydroxybenzoyloxy)-6-((3,4,5-trihydroxybenzoyloxy)methyl)oxan-2-yl 3,4,5-trihydroxybenzoate]",remaining activity at 3 µM,[2],55%
same,remaining activity at 1 µM,[4],57%
"O=C(O)c1cc(O)c(O)c(O)c1 [GA, gallic acid, reference compound]",binding to 3CLPro by native-PAGE mobility shift,[9],no significant binding
"O=C(OC[C@H]1O[C@@H](OC(=O)c2cc(O)c(O)c(OC(=O)c3cc(O)c(O)c(OC(=O)c4cc(O)c(O)c(O)c4)c3)c2)[C@H](OC(=O)c2cc(O)c(O)c(OC(=O)c3cc(O)c(O)c(OC(=O)c4cc(O)c(O)c(O)c4)c3)c2)[C@@H](OC(=O)c2cc(O)c(O)c(OC(=O)c3cc(O)c(O)c(OC(=O)c4cc(O)c(O)c(O)c4)c3)c2)[C@@H]1OC(=O)c1cc(O)c(O)c(OC(=O)c2cc(O)c(O)c(OC(=O)c3cc(O)c(O)c(O)c3)c2)c1)c1cc(O)c(O)c(OC(=O)c2cc(O)c(O)c(OC(=O)c3cc(O)c(O)c(O)c3)c2)c1 [Sample 6, (2S,3R,4S,5R,6R)-6-(((3-((3,4-dihydroxy-5-((3,4,5-trihydroxybenzoyl)oxy)benzoyl)oxy)-4,5-dihydroxybenzoyl)oxy)methyl)tetrahydro-2H-pyran-2,3,4,5-tetrayl tetrakis(3-((3,4-dihydroxy-5-((3,4,5-trihydroxybenzoyl)oxy)benzoyl)oxy)-4,5-dihydroxybenzoate)]",binding to 3CLPro by native-PAGE mobility shift,[9],significant binding
same,remaining activity at 1 µM,[4]; 1 μM sample,39%
same,IC50,[3]; [12],< 609 nM
same,IC50,[3]; [10],602 nM
same,IC50,[3]; [11],602 nM
